Assay results published in patent US7655665B2, “Nitromethylene derivatives and their use” (East China University of Science and Technology, priority 2004, dated 2010).

What was measured:
Aphis craccivoral = assay: Insecticidal activity against Aphis craccivoral by immersing (dipping aphids on bean sprout); assay type: in vivo; settings: 23° C.
Procedure: (§1) Test on the insecticidal activity of Compound Nos. 1-227
Aphis, which belongs to Homoptera and has a piercing-sucking mouthpart, is a common insect for agricultural plant. Aphis craccivoral was tested by the way of immersing.
Test method: exactly weighed various samples were independently added to N,N-dimethylformamide to form a 10 g/L stock solution. The mixture was diluted with 0.2 mL/L aqueous Triton X-100 solution to a concentration of 500 ug/mL. After stably sucking on bean sprout, the adult aphis without wings together with bean sprout was dipped into 500 ug/mL dilution, taken out after 5 seconds, and the excess dilution was sucked out with bibulous paper and the adult aphis without wings was incubated in clean vessel at a constant temperature of 23° C. Each concentration was repeated for 3 times and the control group contained 0.2 mL/L aqueous Triton X-100 solution. The number of killed aphis was counted after 24 hours to calculate the mortality.

Nilaparvata lugens = assay: Insecticidal activity against Nilaparvata lugens (planthopper) by spraying; assay type: in vivo; settings: 500 ppm; for mortality (%) (500 ppm) Nilaparvata-lugens: spraying 2 ml per tumbler, killed counted after 24 hours; for mortality (%) (500 ppm) Nilaparvata lugens: spraying 2 ml, counted after 24 hours
Procedure: as §1
Planthopper, which belongs to Homoptera and has a piercing-sucking mouthpart, is a common insect for agricultural plant. Nilaparvata lugens was tested by the way of spraying.
Test method: the test compound was exactly formulated into a solution having a certain concentration and clean water was used as a blank control. Each process was repeated for 3 tumblers (3 times). 2 ml of solution was sprayed uniformly to each tumbler by a mini manual sprayer. 10 Nilaparvata lugens were introduced to every sink 6 hours before spraying. Three series of experiments were conducted. The number of killed Nilaparvata lugens was counted after 24 hours to calculate the mortality.

[1] = 500 ppm (500 ug/mL dilution), dipped 5 seconds, killed aphis counted after 24 hours
[2] = 500 ppm, immersing (dipped 5 seconds), counted after 24 hours

Structure (SMILES) | mortality (%) (500 ppm) Aphis (Aphis craccivoral; [1]) | mortality (%) (500 ppm) Nilaparvata-lugens (Nilaparvata lugens) | mortality (%) (500 ppm) Aphis (Aphis craccivoral; [2]) | mortality (%) (500 ppm) Nilaparvata lugens (Nilaparvata lugens)
CCC(C)SC1CCC([N+](=O)[O-])=C2N(Cc3cnc(Cl)s3)CCN21 (stereo not shown) [Compound 180] | 34 | 78 |  | 
O=C(OC1CCC([N+](=O)[O-])=C2N(Cc3cnc(Cl)s3)CCN21)c1ccc(C(F)(F)F)cc1 (stereo not shown) [Compound 165] | 90 | 100 |  | 
C#CCOC1CCC([N+](=O)[O-])=C2N(Cc3ccc(Cl)nc3)CCN21 (racemic) [Compound 20] |  |  | 39 | 56
O=C(OC1CCC([N+](=O)[O-])=C2N(Cc3ccc(Cl)nc3)CCN21)c1cccnc1 (stereo not shown) [Compound 120] |  |  | 1 | 5
O=[N+]([O-])C1=C2N(Cc3cnc(Cl)s3)CCN2C(OS(=O)(=O)c2ccccc2)CC1 (stereo not shown) [Compound 158] |  |  | 6 | 7
O=[N+]([O-])C1=C2N(CC3CCOC3)CCN2C(O)CC1 (stereo not shown) [Compound 45] |  |  | 56 | 89
C#CCOC1CCC([N+](=O)[O-])=C2N(Cc3cnc(Cl)s3)CCN21 (stereo not shown) [Compound 42] |  |  | 45 | 100
CCC(C)SC1CCC([N+](=O)[O-])=C2N(Cc3ccc(Cl)nc3)CCN21 (stereo not shown) [Compound 144] |  |  | 12 | 56
CC(C)(C)COC1CCC([N+](=O)[O-])=C2N(Cc3ccc(Cl)nc3)CCN21 (racemic) [Compound 17] |  |  | 100 | 100
CCOC1CCC([N+](=O)[O-])=C2N(Cc3cnc(Cl)s3)CCN21 (racemic) [Compound 25] |  |  | 100 | 100
COC1CCC([N+](=O)[O-])=C2N(Cc3cnc(Cl)s3)CCN21 (racemic) [Compound 24] |  |  | 100 | 100
COCCSC1CCC([N+](=O)[O-])=C2N(Cc3ccc(Cl)nc3)CCN21 (stereo not shown) [Compound 148] |  |  | 67 | 89
O=C(OC1CCC([N+](=O)[O-])=C2N(Cc3ccc(Cl)nc3)CCN21)c1ccccn1 (stereo not shown) [Compound 121] |  |  | 0 | 8
CC(=O)OC1CCC([N+](=O)[O-])=C2N(Cc3cnc(Cl)s3)CCN21 (stereo not shown) [Compound 152] |  |  | 3 | 0
O=[N+]([O-])C1=C2N(Cc3cnc(Cl)s3)CCN2C(OCCCl)CC1 (racemic) [Compound 26] |  |  | 26 | 64
COC1CCC([N+](=O)[O-])=C2N(CC3CCOC3)CCCN21 (stereo not shown) [Compound 100] |  |  | 3 | 8
C=CCOC1CCC([N+](=O)[O-])=C2N(CC3CCOC3)CCN21 (stereo not shown) [Compound 64] |  |  | 37 | 46
CCCCOC1CCC([N+](=O)[O-])=C2N(Cc3cnc(Cl)s3)CCCN21 (stereo not shown) [Compound 93] |  |  | 7 | 8
CC1CC(O)N2CCN(Cc3cnc(Cl)s3)C2=C1[N+](=O)[O-] (stereo not shown) [Compound 70] |  |  | 33 | 12
CCCCCOC1CCC([N+](=O)[O-])=C2N(CC3CCOC3)CCN21 (stereo not shown) [Compound 58] |  |  | 34 | 23
CCCCCN=C1CCC([N+](=O)[O-])=C2N(Cc3ccc(Cl)nc3)CCN12 [Compound 195] | 46 | 78 |  | 

Structure (SMILES) | mortality (%) (500 ppm) Aphis (Aphis craccivoral; [1]) | mortality (%) (500 ppm) Nilaparvata-lugens (Nilaparvata lugens) | mortality (%) (500 ppm) Aphis (Aphis craccivoral; [2]) | mortality (%) (500 ppm) Nilaparvata lugens (Nilaparvata lugens)
CC(C)N=C1CCC([N+](=O)[O-])=C2N(Cc3ccc(Cl)nc3)CCCN12 [Compound 206] | 56 | 98 |  | 
CCCCCN=C1CCC([N+](=O)[O-])=C2N(Cc3cnc(Cl)s3)CCCN12 [Compound 226] | 22 | 57 |  | 
CCSC1CCC([N+](=O)[O-])=C2N(Cc3cnc(Cl)s3)CCN21 (stereo not shown) [Compound 172] | 100 | 100 |  | 
CC(C)COC1CCC([N+](=O)[O-])=C2N(Cc3ccc(Cl)nc3)CCCN21 (stereo not shown) [Compound 80] |  |  | 23 | 34
CCCC(C)N=C1CCC([N+](=O)[O-])=C2N(Cc3ccc(Cl)nc3)CCN12 (stereo not shown) [Compound 197] | 8 | 56 |  | 
CC1CC(O)N2CCN(CC3CCOC3)C2=C1[N+](=O)[O-] (stereo not shown) [Compound 68] |  |  | 2 | 7
O=[N+]([O-])C1=C2N(Cc3cnc(Cl)s3)CCN2C(SCC(F)(F)F)CC1 (stereo not shown) [Compound 174] | 67 | 100 |  | 
CCOCCOC1CCC([N+](=O)[O-])=C2N(Cc3cnc(Cl)s3)CCN21 (stereo not shown) [Compound 44] |  |  | 67 | 100
CC(C)(C)SC1CCC([N+](=O)[O-])=C2N(Cc3ccc(Cl)nc3)CCN21 (stereo not shown) [Compound 142] |  |  | 67 | 88
O=C(OC1CCC([N+](=O)[O-])=C2N(Cc3ccc(Cl)nc3)CCN21)C(F)(F)F (stereo not shown) [Compound 116] |  |  | 2 | 45
O=C(OC1CCC([N+](=O)[O-])=C2N(Cc3ccc(Cl)nc3)CCN21)c1cc(F)c(Cl)cc1Cl (stereo not shown) [Compound 125] |  |  | 67 | 92
O=[N+]([O-])C1=C2N(Cc3cnc(Cl)s3)CCN2C(OC(C(F)(F)F)C(F)(F)F)CC1 (racemic) [Compound 30] |  |  | 58 | 98
CCN=C1CCC([N+](=O)[O-])=C2N(Cc3ccc(Cl)nc3)CCN12 [Compound 190] | 89 | 100 |  | 
CC(C)(C)CSC1CCC([N+](=O)[O-])=C2N(Cc3ccc(Cl)nc3)CCN21 (stereo not shown) [Compound 147] |  |  | 56 | 99
O=[N+]([O-])C1=C2N(Cc3cnc(Cl)s3)CCCN2C(OCC(F)(F)F)CC1 (stereo not shown) [Compound 89] |  |  | 100 | 100
O=[N+]([O-])C1=C2N(Cc3cnc(Cl)s3)CCN2C(OC2CCCCC2)CC1 (racemic) [Compound 40] |  |  | 45 | 67
O=C(OC1CCC([N+](=O)[O-])=C2N(Cc3ccc(Cl)nc3)CCN21)c1ccc(Cl)cc1 (stereo not shown) [Compound 124] |  |  | 22 | 0
O=[N+]([O-])C1=C2N(Cc3ccc(Cl)nc3)CCN2C(Oc2ccccc2)CC1 (stereo not shown) [Compound 112] |  |  | 38 | 75
CC(=O)OC1CCC([N+](=O)[O-])=C2N(Cc3ccc(Cl)nc3)CCN21 (stereo not shown) [Compound 113] |  |  | 45 | 77
CCCOC1CCC([N+](=O)[O-])=C2N(CC3CCOC3)CCN21 (stereo not shown) [Compound 50] |  |  | 100 | 100
